From US20170252306A1, “Pharmaceutical Compositions for Preventing and Treating Th1 or Th2 mediated Immune Disease Comprising 4H3MC(4-Hydroxy-3-methoxycinnamaldehyde) as an Active Ingredient” (GWANGJU INSTITUTE OF SCIENCE AND TECHNOLOGY, priority 2016, published 2017)

Columns and labels:
[1] = tested on: Jurkat T cells and human PBLs; experiment: IL-2 mRNA expression in activated T cells (real-time PCR); type: cell-based
Procedure: (§1) Jurkat T cells (5×10^5) or human PBLs (1×10^6) were stimulated with anti-CD3 (OKT3, 10 μg/ml)/CD28 (2 μg/ml) or PMA (100 nM)/A23187 (1 μM). For anti-CD3/CD28 stimulation, cells were placed on a culture dish coated with anti-CD3 antibody, and were then treated with anti-CD28 (2 μg/ml) antibody. For superantigen stimulation, T cells were incubated with SEE (1 μg/ml)-pulsed Raji B cells. For pre- or post-treatment experiments, various concentrations of 4H3MC or HCA were added 30 minutes or 60 minutes before stimulation.
Total RNA was isolated from Jurkat T cells using TRIZOL reagent (JBI, Korea). Reverse transcription of the RNA was performed using RT Pre-Mix (Intron, Korea). The primers and PCR conditions were as follows: […]
The amplification profile was composed of denaturation at 94° C. for 30 seconds, annealing at 60° C. for 20 seconds, and extension at 72° C. for 40 seconds. 30 cycles were preceded by denaturation at […] for 7 minutes. In some experiments, the expression levels of IL-2 mRNA were evaluated by real-time RT-PCR. Total RNA was isolated and cDNA was synthesized as described above. PCR amplification was performed in Step One Real-time PCR system (Applied Biosystems, Foster city, CA) for continuous fluorescence detection system using SYBR (Takara, Japan). Each PCR reaction was performed under the following conditions: 94° C. for 30 sec, 60° C. for 30 sec and 72° C. for 30 sec, plate read (detection of fluorescent product) for cycles, followed by extension at 72° C. for 7 min. Melting curve analysis was done to characterize the double-stranded DNA product. The levels of IL-2 mRNA normalized for GAPDH were expressed as fold changes relative to that of untreated controls. All experiments were performed at least three times.

[2] = tested on: Jurkat T cells and human PBLs; experiment: IL-2 secretion from activated T cells (ELISA); type: cell-based; settings: for IC50: Jurkat T cells and human PBLs, PMA/A23187 stimulation, supernatants after 36 hours, ELISA, read-out: IC50 of inhibition of IL-2 secretion
Procedure: as §1
Jurkat T cells or human PBLs were stimulated in the same manner as described above with respect to T-cell stimulation and treatment with 4H3MC or HCA. At the indicated time points, the supernatants were collected, and the concentrations of IL-2 in the supernatants were measured using a Duo set Human IL-2 ELISA kit (R&D Systems).

[3] = tested on: Jurkat T cells; experiment: Cell death assay (microscopy, 7-AAD/annexin V flow cytometry, Hoechst staining); type: cell-based, human; settings: 16 hours
Procedure: Cell death of Jurkat T cells was examined using a double staining method with 7-AAD and annexin V-PE. Jurkat T cells (1×10^6) were indicated concentrations of 4H3MC for 16 hours, and then suspended in 200 μl of HBSS buffer comprising 7-AAD (1 μg/ml) and were incubated at 37° C. for 10 minutes. After 10 minutes, the cells were incubated with 200 μl of HBSS buffer comprising V-PE (20 μg/ml) and analyzed immediately on a BD FACS Canto™ II Flow Cytometer (BD Biosciences). All experiments were performed at least three times.
Jurkat T cells were treated with 10 μM of 4H3MC for 16 hours, and then pelleted onto a PLL-coated cover glass slide (18-mm diameter; Fisher Scientific, Pittsburgh, Pa.) using a cytospin centrifuge. The pelleted cells were fixed in 2% para-formaldehyde at room temperature for 10 minutes, and then washed three times with PBS. As control, cells were stained with TRITC-phalloidin for detecting actin. The slide was incubated for 2 minutes in PBS containing Hoechst dye (1:105) at room temperature, and then the cells were examined using an FV1000 confocal microscope.

[4] = tested on: PKC; experiment: PKC activity measurement in Jurkat T cell lysate (ELISA-based kinase assay); type: biochemical, human; settings: Jurkat T cell cytosol fraction, compound 0.01-50 μM, PMA 100 nM
Procedure: Jurkat T cells (1×10^6) were suspended in lysis buffer (1% Triton X-100, 150 mM NaCl, 20 mM Tris pH 7.5, protease inhibitor, phosphatase inhibitor), and then kept at 4° C. for 1 hour and centrifuged at 14,000×g for 30 minutes. Cell lysate was incubated with 4H3MC ([…]), HCA ([…]) or STSN (10 nM) at 4° C. for 30 minutes. PMA (100 nM) was added, and PKC activity was measured with a nonradioactive protein kinase assay based on ELISA. The assay was developed with tetramethylbenzidine substrate, and the color developed proportionally to PKC phosphotransferase activity. The intensity of the color was measured at 450 nm. The data were expressed as relative kinase activity.

[5] = target: T1, PKCθ (Homo sapiens, UniProt Q04759); experiment: PKCθ phosphorylation and accumulation at the immunological synapse (confocal imaging); type: cell-based; settings: Jurkat T cells pretreated with 4H3MC 10 μM, conjugates with SEE-pulsed Raji B cells
T1 construct: endogenous in cells; host or cells: Jurkat T cells conjugated with SEE-pulsed Raji B cells
T1 sequence (Q04759 whole entry): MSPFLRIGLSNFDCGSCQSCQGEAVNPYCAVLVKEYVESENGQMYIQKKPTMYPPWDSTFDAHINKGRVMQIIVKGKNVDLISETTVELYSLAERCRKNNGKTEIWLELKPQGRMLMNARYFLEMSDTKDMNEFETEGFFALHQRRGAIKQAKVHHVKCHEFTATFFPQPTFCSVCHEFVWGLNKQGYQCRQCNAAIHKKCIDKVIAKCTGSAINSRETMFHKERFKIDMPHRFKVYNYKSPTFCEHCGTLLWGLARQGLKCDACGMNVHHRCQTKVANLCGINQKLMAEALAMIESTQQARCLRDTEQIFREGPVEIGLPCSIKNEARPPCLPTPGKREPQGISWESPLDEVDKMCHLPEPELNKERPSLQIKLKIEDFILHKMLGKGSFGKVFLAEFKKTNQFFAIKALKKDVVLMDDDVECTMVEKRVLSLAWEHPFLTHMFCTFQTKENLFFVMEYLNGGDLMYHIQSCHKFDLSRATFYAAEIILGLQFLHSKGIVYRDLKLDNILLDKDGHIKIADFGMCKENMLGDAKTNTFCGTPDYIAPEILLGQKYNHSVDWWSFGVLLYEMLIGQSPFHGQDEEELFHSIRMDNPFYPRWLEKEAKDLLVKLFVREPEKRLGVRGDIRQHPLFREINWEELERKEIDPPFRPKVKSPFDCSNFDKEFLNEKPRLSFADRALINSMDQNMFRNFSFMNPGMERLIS
Procedure: Jurkat T cells were pretreated with 10 μM of 4H3MC for 1 hour, while Raji B cells were stained with 1 μM of CMFDA green tracker for 30 minutes. After washing twice with RPMI medium, Raji B cells were incubated with SEE (1 μg/ml) at 37° C. for 30 minutes. SEE-conjugated Raji B cells were incubated with 4H3MC-treated Jurkat T cells for 10 minutes to form an immunological synapse, and then placed on glass coverslips. The cells were fixed with 2% paraformaldehyde and washed with PBS. After washing, the cells were permeabilized with 0.1% TritonX-100 and incubated with primary antibodies (antibodies against CD3, LFA-1, t-PKCθ, p-PKCθ) overnight. On the next day, the cells were washed with PBS, and then incubated with secondary antibodies (cy3-conjugated goat anti-mouse IgG, Texas Red-conjugated goat anti-rabbit IgG antibodies) at room temperature for 1 hour. After washing, the cells were placed on a slide glass using Dako fluorescent mounting medium (Dako, Denmark), followed by drying. The dried slide samples were examined with an FV1000 confocal laser scanning microscope (Olympus), and CD3, LFA-1, t-PKCθ and p-PKCθ accumulation at the immunological synapse was observed and analyzed.

[6] = tested on: PKCθ, ERK and p38 kinase; experiment: Western blot of phospho-PKCθ, ERK and p38 in activated Jurkat T cells; type: cell-based, human
Procedure: as §1
Jurkat T cells were lysed by cold lysis buffer (1% Triton X-100, 150 mM NaCl, 20 mM Tris, pH 7.5, protease inhibitor and phosphatase inhibitor) for 1 hour, and then centrifuged at 4° C. at 16,000×g for 30 minutes. About 100 μg of the extract lysate was separated through 10% SDS-PAGE. Proteins were transferred into a nitrocellulose membrane by means of Trans-Blot SD semidry transfer cell (Bio-Rad, Hercules, Calif.). The membrane was blocked in 5% skim milk for 1 hour, washed, and then incubated with the indicated antibodies in 3% skim milk overnight. Excess primary antibody was removed by washing the membrane with TBST, and then the membrane was incubated with peroxidase-conjugated secondary antibody for 2 hours. After washing with TBST, bands were visualized by Western blotting detection reagent and then exposed to x-ray film.

[7] = tested on: AP-1, NF-κB and NFAT; experiment: AP-1, NF-κB and NFAT luciferase activity assays; type: cell-based, human; settings: transfected Jurkat T cells, 4H3MC 10 μM pretreatment 1 hour, PMA/A23187 16 hours
Procedure: Jurkat T cells (1.5×10^6) were transfected with 100 μl of Amaxa's Nucleofector solution (Amaxa, Germany) containing 3 μg of pGL3-AP-1, pGL3-NF-κB or pGL3-NFAT Luc plasmids, and then the cells were transferred to complete medium and cultured at 37° C. After 48 hours of transfection, the transfected cells were pretreated with 4H3MC (10 μM) for 1 hour, and then stimulated with PMA/A23187 for 16 hours. After […], the cells were harvested and lysed with a lysis buffer for luciferase assay (Promega, Madison, Wis.). Cellular debris was removed from lysed proteins by centrifugation at 16,000×g at 4° C. for 30 minutes. Luciferase activity was measured with a Centro LB 960 Luminometer (Berthold Technologies, Germany).

[8] = tested on: atopic skin disease BALB/c mice; experiment: DNCB/mite extract-induced atopic skin disease in mice; type: in vivo; settings: 4H3MC 50 mg/kg orally every day for 4 weeks
Procedure: With reference to a previously reported publication, atopic skin disease was induced using DNCB and a mite extract. BALB/c mice were divided into four groups, and then the skin was peeled off by touching each earlobe five times with a surgical tape (Seo-il Chemistry, Hwa-sung, Korea). On day 0, 20 μl of DNCB (1%) was applied to each peeled earlobe, and on day 4, 20 μl of a mite extract (10 mg/mL) was applied. DNCB and the mite extract were alternately applied once a week for 4 weeks. From day 1, 4H3MC (50 mg/kg) was administered orally everyday for 4 weeks. Using a thickness meter (Kori Seiki MFG Co., Japan), the ear thickness was measured at 24 hours after application of DNCB or the mite extract. After 28 days, blood was sampled, and the serum portions were stored at […]. After blood sampling, the ear tissue was cut and used for histopathological analysis.

[9] = Jurkat T cells pre-activated 30 minutes with anti-CD3/CD28 or PMA/A23187, then 4H3MC 10 μM
[10] = Jurkat T cells, 4H3MC 10 μM pretreatment 1 hour, anti-CD3/CD28 or PMA/A23187

With COc1cc(C=CC=O)ccc1O [4H3MC, 4-Hydroxy-3-methoxycinnamaldehyde] the “IL-2 expression (mRNA)” value ([1]; Jurkat T cells and human PBLs pretreated 1 hour with 4H3MC 0-250 μM, then PMA/A23187 or anti-CD3/CD28 for 6 hours) was “significantly inhibited IL-2 expression in a concentration-dependent manner”, the “concentration at which dramatic inhibition of IL-2 expression was seen” value ([1]; Jurkat T cells and human PBLs, pretreatment 1 hour, PMA/A23187 or anti-CD3/CD28) was 2 to 10 µM and the “IL2 mRNA expression, post-treatment” value [1, 9] was “effectively reduced the expression of IL2 mRNA in pre-activated Jurkat T cells”. The “time-dependent IL-2 mRNA expression” value ([1]; Jurkat T cells, 4H3MC 10 μM pretreatment 1 hour, anti-CD3/CD28 or PMA/A23187 for various times) was “inhibited IL-2 mRNA expression at the early time point (about 3 hours) after stimulation which lasted over 6 hours”, the IC50 [2] was roughly 2.5 µM and the “fold effectiveness versus HCA in inhibition of IL-2 in T cells” value ([2]; comparison of IC50 values of 4H3MC and HCA) was roughly 5 fold. The “time-dependent IL-2 secretion” value ([2]; human PBLs, 4H3MC 10 μM pretreatment 1 hour, PMA/A23187) was “significantly reduced”, the apoptosis or necrosis ([3]; 10-100 μM) was “did not induce apoptosis or necrosis” and the “apoptosis or necrosis by Hoechst staining” value ([3]; effective concentration (10 μM)) was “does not induce apoptosis or necrosis at its effective concentration”. For the same compound, the necrosis ([3]; high concentrations (250 μM)) was “induced necrosis in some Jurkat T cells”, the PKC activity [4] was “significantly inhibited PKC-specific activity with the lower effective concentration than HCA” and the “phosphorylation and accumulation of PKCθ at the IS” value [5] was “significantly reduced the phosphorylation as well as accumulation of PKCθ at the IS”. For the same compound, the “phosphorylated forms of PKCθ, ERK and p38, post-treatment” value [6, 9] was “significantly reduced”, the “phosphorylation of ERK and p38” value [6, 10] was “dramatically reduced anti-CD3/CD28- and PMA/A23187-induced phosphorylation of ERK and p38” and the “phosphorylation of PKCθ” value [6, 10] was “significantly blocked phosphorylation of PKCθ”. For the same compound, the “luciferase activities of NF-κB, AP-1 and NFAT” value [7] was “considerably reduced PMA/A23187-induced luciferase activities of NF-κB, AP-1 and NFAT”, the “ear symptoms (flushed and swollen) 28 days after induction” value [8] was “such symptoms were alleviated” and the ear thickness [8] was “became significantly thinner from 8 days”.

For O=C(O)C=Cc1ccc(O)cc1 [HCA, p-hydroxycinnamic acid, reference compound], the IC50 [2] was 15 to 18 µM and the PKC activity [4] was “inhibit PKC activity in vitro”.
